Results published in patent US20250197428A1, “INHIBITORS OF KIF18A AND USES THEREOF” (ACCENT THERAPEUTICS, INC., priority 2022, published 2025).
Read-outs that look alike come from different tables or passages of the source.

Legend:
KIF18A = KIF18A (Homo sapiens (Human), UniProt Q8NI77); assay: KIF18A Biochemical Assay (ATPase, ADP-Glo)
[1] = Caco-2 permeation assay, bidirectional permeability; type: in vitro ADME; details: human, Caco-2, pH 7.4, 5 μM, Papp(B-A)/Papp(A-B)
Protocol: 1. Caco-2 Permeation Assay: Evaluation of the Bidirectional Permeabilities of Compounds.
Samples were analyzed through LC/MS/MS for estimating the apparent permeability coefficients (Papp) of compounds across Caco-2 cell monolayers. Caco-2 cells (American Type Culture Collection) were incubated and seeded onto HTS Transwell-96 Well Permeable Supports (Corning Corporation) for 14 days using a cell medium consisting of Dulbecco's Modified Eagle's Medium (DMEM) with high glucose and L-glutamine supplemented with 10% FBS, 1× penicillin-streptomycin mixture and 1×non-essential amino acids (NEAA). Cell monolayer integrity was measured using an automated tissue resistance measuring system (World Precision Instruments). Stock solutions of compounds and control compounds in DMSO were diluted with HBSS (10 mM HEPES, pH 7.4) to reach a final concentration of 5 μM with a final concentration of DMSO <0.1%. HBSS was then removed after 30 minutes of preincubation, and 75 μL of test compound was added to the apical compartment of the Transwell insert. The basolateral compartment was filled with 235 μL of HBSS (10 mM HEPES, pH 7.4) containing 2% BSA. Rate of drug transport in the basolateral to apical direction was obtained by adding 235 μL of test compound to the receiver plate wells (basolateral compartment) and filling with 75 μL of HBSS (10 mM HEPES, pH 7.4) containing 2% BSA. Time 0 samples were prepared by transferring 25 μL of 5 μM working solution to wells of the 96-deepwell plate containing 25 μL HBSS (10 mM HEPES and 2% BSA, pH 7.4), followed by the addition 200 μL of cold methanol containing appropriate internal standards (100 nM alprazolam, 200 nM labetalol, 200 nM caffeine and 200 nM diclofenac). After incubating at 37° C. for 2 h, 25 μL samples from donor sides (apical compartment) were transferred to a 96-well plate containing 25 μL HBSS (10 mM HEPES and 2% BSA, pH 7.4). 25 μL samples from receiver sides (basolateral compartment) were removed and transferred to a new plate containing 25 μL HBSS (10 mM HEPES, pH 7.4). 200 μL of cold methanol containing internal standards (100 nM alprazolam, 200 nM labetalol, 200 nM caffeine and 200 nM diclofenac) was added to terminate the reaction. Samples were vortexed for 5 minutes and then centrifuged at 3,220 g for 40 minutes. An aliquot of 100 μL of the supernatant is mixed with 100 μL of ultra-pure water for LC-MS/MS analysis. All incubations are performed in duplicate. Solutions were discarded from the transwell plate. 100 μL Lucifer Yellow solution (100 μM in HBSS) was added to each well of transwell insert and 300 μL of HBSS to each well of receiver. After incubating at 37° C. for 30 minutes, 80 μL was aliquotted from each well of apical and basolateral sides to a solid black plate. The plate was then read with Tecan Infinite™ M 200 (Excitation/Emission wavelength […]).
All calculations were carried out using Microsoft Excel. Peak areas were determined from extracted ion chromatograms. The leakage of Lucifer Yellow, in unit of percentage (%), can be calculated using the following equation: […]
LY leakage of <1% is acceptable to indicate the well-qualified Caco-2 monolayers. The apparent permeability coefficient (Papp), in units of centimeter per second, can be calculated for Caco-2 drug transport assays using the following equation: […]
Where VA is the volume (in mL) in the receiver well (0.235 mL for Ap→Bl flux and 0.075 mL for Bl→Ap flux), Area is the surface area of the membrane (0.143 cm^2 for HTS Transwell-96 Well Permeable Supports), and time is the total transport time in seconds. The efflux ratio can be determined using the following equation: […]
Where Papp (B-A) indicates the apparent permeability coefficient in basolateral to apical direction, and Papp (A-B) indicates the apparent permeability coefficient in apical to basolateral direction.
The recovery can be determined using the following equation: […]

[2] = In vivo pharmacokinetic evaluation in mouse; parameters: species or system female balb/c nude mice; details: for IV Clearance / Vd: 3 mg/kg IV; for Vd: read-out: IV Vss
OVCAR-3 cells = assay: In vitro anti-proliferative activity assay in cancer cell line OVCAR-3 (CellTiter-Glo, 4- or 7-day); type: cell-based; details: Homo sapiens, read-out: OVCAR-3 cellular antiproliferation assay IC50
[3] = Bone marrow concentration in 28 day OVCAR-3 xenograft study; type: in vivo, mice; details: NOD SCID, mouse, 30 mg/kg QD oral, 28 day study
Protocol: On Day 28, tissues were collected from animals. About 30-60 μL of whole blood was collected into tubes containing EDTA anticoagulant, and plasma was harvested by centrifugation at 4,000 g×5 min and stored at −80° C. until analysis. Plasma analysis followed the same protocol as for the Day 1 plasma analysis. Additionally, the femurs of the mice were cut and put in pre-weighed tubes. The bone marrow was harvested by centriguation at 8,000 g×15 min. Then, the total weight of both the bone marrow and the tube was recorded. The bone marrow was stored at −80° C. until analysis.
Samples were collected from animals 6 h after the last dose of compound and at 24 h after the last dose of compound.

KIF18A, sequence (Q8NI77 1-367): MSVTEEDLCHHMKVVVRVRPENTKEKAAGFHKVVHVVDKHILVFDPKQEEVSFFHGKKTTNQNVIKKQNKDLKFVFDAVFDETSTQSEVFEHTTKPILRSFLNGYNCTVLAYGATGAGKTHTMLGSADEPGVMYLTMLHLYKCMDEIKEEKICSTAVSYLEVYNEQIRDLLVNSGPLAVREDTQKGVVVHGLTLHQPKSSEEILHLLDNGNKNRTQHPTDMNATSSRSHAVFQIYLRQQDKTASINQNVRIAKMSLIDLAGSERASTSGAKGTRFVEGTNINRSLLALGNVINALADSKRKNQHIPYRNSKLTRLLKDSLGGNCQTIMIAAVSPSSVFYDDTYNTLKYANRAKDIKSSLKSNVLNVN
KIF18A, sequence (P02550 whole entry partner): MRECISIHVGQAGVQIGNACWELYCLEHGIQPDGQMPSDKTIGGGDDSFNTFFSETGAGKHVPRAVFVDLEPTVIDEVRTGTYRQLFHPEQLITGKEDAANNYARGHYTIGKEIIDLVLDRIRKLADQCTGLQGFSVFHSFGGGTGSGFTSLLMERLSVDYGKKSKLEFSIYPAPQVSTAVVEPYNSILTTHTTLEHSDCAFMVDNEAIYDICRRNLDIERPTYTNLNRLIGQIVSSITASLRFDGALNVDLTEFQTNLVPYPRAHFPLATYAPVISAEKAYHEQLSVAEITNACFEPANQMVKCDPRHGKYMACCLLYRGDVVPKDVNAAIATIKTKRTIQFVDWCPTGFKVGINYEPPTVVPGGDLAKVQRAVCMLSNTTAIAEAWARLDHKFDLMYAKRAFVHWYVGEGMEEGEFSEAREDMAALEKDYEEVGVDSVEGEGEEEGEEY
KIF18A, sequence (P02554 whole entry partner): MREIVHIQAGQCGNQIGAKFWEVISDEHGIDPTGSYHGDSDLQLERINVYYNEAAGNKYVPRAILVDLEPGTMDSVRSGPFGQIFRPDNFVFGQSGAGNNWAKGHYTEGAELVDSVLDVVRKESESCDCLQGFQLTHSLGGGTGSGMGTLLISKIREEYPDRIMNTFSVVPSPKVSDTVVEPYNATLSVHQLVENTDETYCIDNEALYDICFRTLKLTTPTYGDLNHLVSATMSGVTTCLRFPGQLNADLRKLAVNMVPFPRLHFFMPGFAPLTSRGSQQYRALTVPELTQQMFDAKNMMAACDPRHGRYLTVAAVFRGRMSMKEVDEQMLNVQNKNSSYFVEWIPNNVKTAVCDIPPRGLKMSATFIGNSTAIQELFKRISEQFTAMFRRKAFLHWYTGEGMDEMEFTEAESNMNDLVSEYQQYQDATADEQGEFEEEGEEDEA

IC50 (OVCAR-3 cells; OVCAR-3, 168 h, 7-day assay) [nM] | SMILES | IC50 (KIF18A) [nM] | efflux ratio at 2 h, 5 μM [1] | IC50 (OVCAR-3 cells; OVCAR-3, 96 h, 4-day assay) [nM] | also measured
100 to 500 | Cc1cc(NC(=O)c2ccc(NS(=O)(=O)CCO)cc2N2CC[C@@]3(F)CC[C@H]3C2)nc(N2CCC(F)(F)CC2)n1 (single isomer, unassigned) [Example 50b] | < 100 | < 10 | – | IV Clearance [2]: 0.74 mL/ming/kg; Vd ([2]; female, balb/c nude, plasma): 0.51 L/kg; Cmax ([2]; female, balb/c nude, plasma, 10 mg/kg PO): 10100 ng/mL; half-life ([2]; female, balb/c nude, plasma, 10 mg/kg PO, read-out: PO T1/2 (converted)): 10.6 h
– | Cc1cc(NC(=O)c2ccc(NS(=O)(=O)CCO)cc2N2CCC3(CC2)CC3)nc(N2CCC(F)(F)CC2)n1 [Compound A, reference compound] | – | – | < 100 | concentration at 6 h ([3]; read-out: Bone marrow concentration at 6 h post-last dose): 17000 ng/g; concentration at 24 h ([3]; read-out: Bone marrow concentration at 24 h post-last dose): 4100 ng/g; IV Clearance [2]: 4.1 mL/ming/kg; Vd ([2]; female, balb/c nude, plasma): 2 L/kg
– | C[C@H]1CN(c2cccc(NC(=O)c3ccc(NS(=O)(=O)CCO)cc3N3CC[Si](C)(C)CC3)n2)CCO1 [Example 17] | < 100 | ≥ 10 | < 100 | –
– | C[Si]1(C)CCN(c2cc(NS(=O)(=O)CCO)ccc2C(=O)Nc2ccnc(OCCC(F)(F)F)n2)CC1 [Example 10] | < 100 | ≥ 10 | 500 to 1000 | –
– | Cc1cc(NC(=O)c2ccc(NS(C)(=O)=O)cc2N2CC[Si](C)(C)CC2)nc(N2CC(F)(F)C2)c1 [Example 20] | 100 to 500 | < 10 | 100 to 500 | –
– | C[Si]1(C)CCN(c2cc(NS(=O)(=O)CCO)ccc2C(=O)Nc2cccc(OCCC(F)(F)F)n2)CC1 [Example 16] | < 100 | < 10 | < 100 | –
< 100 | O=C(Nc1ccnc(N2CCC(F)(F)CC2)n1)c1c(F)cc(NS(=O)(=O)CCO)cc1N1CC[C@@]2(C(F)F)C[C@H]2C1 [Example 70] | < 100 | ≥ 10 | – | –
< 100 | COC[C@@]12CCN(c3cc(NS(=O)(=O)CCO)ccc3C(=O)Nc3cc(C)nc(N4CCC(F)(F)CC4)n3)C[C@@H]1C2 (single isomer, unassigned) [Example 49b] | < 100 | < 10 | – | –
< 100 | O=C(Nc1cccc(N2CCC(F)(F)CC2)n1)c1ccc(NS(=O)(=O)CCO)cc1N1CC[C@@]2(C(F)F)C[C@H]2C1 [Example 66] | < 100 | < 10 | – | –
– | Cc1cc(NC(=O)c2ccc(NS(=O)(=O)CCO)cc2N2CC[Si](C)(C)CC2)nc(N2CCOCC2)c1 [Example 5, 2-(4,4-dimethyl-1,4-azasilinan-1-yl)-4-((2-hydroxyethyl)sulfonamido)-N-(4-methyl-6-morpholinopyridin-2-yl)benzamide] | < 100 | < 10 | < 100 | –
– | Cc1ccc(NC(=O)c2ccc(NS(=O)(=O)CCO)cc2N2CC[Si](C)(C)CC2)nc1N1CCOCC1 [Example 2, 2-(4,4-dimethyl-1,4-azasilinan-1-yl)-4-((2-hydroxyethyl)sulfonamido)-N-(5-methyl-6-morpholinopyridin-2-yl)benzamide] | < 100 | < 10 | < 100 | –
< 100 | O=C(Nc1ccnc(N2CCC(F)(F)CC2)n1)c1ccc(NS(=O)(=O)CCO)cc1N1CC[C@]2(C(F)F)C[C@@H]2C1 [Example 60] | < 100 | ≥ 10 | – | –
– | Cc1cc(NC(=O)c2ccc(NS(=O)(=O)CCO)cc2N2CC[C@]3(C)C[C@@H]3C2)nc(N2CCC(F)(F)CC2)n1 [Example 35] | < 100 | < 10 | 100 to 500 | –
– | Cc1cc(NC(=O)c2ccc(NS(=O)(=O)CCO)cc2N2CCC3CC3C2)nc(N2CCC(F)(F)CC2)n1 (stereo not drawn) [Example 34] | < 100 | ≥ 10 | 100 to 500 | –
– | Cc1cc(NC(=O)c2ccc(NS(=O)(=O)CCO)cc2N2CCC3(C)C(C2)C3(F)F)nc(N2CCC(F)(F)CC2)n1 (stereo not drawn) [Example 28, 2-(7,7-difluoro-6-methyl-3-azabicyclo[4.1.0]heptan-3-yl)-N-(2-(4,4-difluoropiperidin-1-yl)-6-methylpyrimidin-4-yl)-4-((2-hydroxyethyl)sulfonamido)benzamide] | < 100 | < 10 | 100 to 500 | –
– | C[Si]1(C)CCN(c2cc(NS(=O)(=O)CCO)ccc2C(=O)Nc2ccnc(N3CCC(F)(F)CC3)c2)CC1 [Example 7, N-(2-(4,4-difluoropiperidin-1-yl)pyridin-4-yl)-2-(4,4-dimethyl-1,4-azasilinan-1-yl)-4-((2-hydroxyethyl)sulfonamido)benzamide] | < 100 | ≥ 10 | < 100 | –
100 to 500 | Cc1cc(NC(=O)c2ccc(S(=O)(=O)NCCO)cc2N2CC[C@@]3(C(F)F)C[C@H]3C2)nc(N2CCC(F)(F)CC2)n1 [Example 78] | < 100 | < 10 | – | –
100 to 500 | O=C(Nc1cccc(N2CCC(F)(F)CC2)n1)c1c(F)cc(NS(=O)(=O)CCO)cc1N1CC[C@@]2(C(F)F)C[C@H]2C1 [Example 84] | < 100 | < 10 | – | –

SMILES | IC50 (OVCAR-3 cells; OVCAR-3, 168 h, 7-day assay) [nM] | IC50 (KIF18A) [nM] | efflux ratio at 2 h, 5 μM [1] | IC50 (OVCAR-3 cells; OVCAR-3, 96 h, 4-day assay) [nM] | also measured
C[Si]1(C)CCN(c2cc(S(=N)(=O)C3CC3)ccc2C(=O)Nc2cccc(N3CCC(F)(F)CC3)n2)CC1 (stereo not drawn) [Example 120] | < 100 | < 100 | < 10 | – | –
C[Si]1(C)CCN(c2cc(NS(C)(=O)=O)ccc2C(=O)Nc2cccc(OC[C@@H](O)C(F)(F)F)n2)CC1 [Example 127] | < 100 | < 100 | < 10 | – | –
Cc1cc(NC(=O)c2c(F)cc(NS(=O)(=O)CCO)cc2N2CC[Si](C)(C)CC2)nc(N2CCC(F)(F)CC2)n1 [Example 110] | < 100 | < 100 | < 10 | – | –
CC(CO)S(=O)(=O)Nc1ccc(C(=O)Nc2cccc(OCCC(F)(F)F)n2)c(N2CC[Si](C)(C)CC2)c1 (stereo not drawn) [Example 113] | 100 to 500 | < 100 | < 10 | – | –
Cc1cc(NC(=O)c2ccc(NS(=O)(=O)N(C)CCO)cc2N2CC[Si](C)(C)CC2)nc(N2CCC(F)(F)CC2)n1 [Example 134] | 100 to 500 | < 100 | < 10 | – | –
Cc1cc(NC(=O)c2ccc(NS(=O)(=O)[C@@H](C)CO)cc2N2CC[Si](C)(C)CC2)nc(N2CCC(F)(F)CC2)n1 [Example 112] | 100 to 500 | < 100 | ≥ 10 | – | –
